# Laboratory results reported in PMC11792831, “Design and synthesis of doublecortin-like kinase 1 inhibitors and their bioactivity evaluation” (Journal of Enzyme Inhibition and Medicinal Chemistry, 2023).
# Columns and labels:
# [1] = test system: HCT116; experiment: In vitro cytotoxicity / anti-proliferation assay (CCK8); assay type: cell-based; conditions: Homo sapiens, HCT-116, colorectal cancer cell line HCT116, 72 h
# Procedure: To determine whether DCLK1 was required for tumour cell proliferation, the cytotoxicity of compounds was evaluated in colorectal cancer cell line HCT116. HCT116 was treated with compounds for 72 h, and the cell viability was determined using CCK8 assay (Figure 4). The antiproliferative effects of most compounds on HCT116 were correlated with their DCLK1 inhibitory activities, except for compounds D1 and D2. The poor cytotoxicity of compounds D1 and D2 may be attributed to their poor cell membrane permeability due to the negatively charged carboxylates. […] Overall, targeting DCLK1 inhibited the proliferation of HCT116, indicating the importance of DCLK1 in tumour growth.
# A 96-well plate (3599, Corning, USA) was inoculated with 100 μL of complete medium containing 10 000 cells, and the experimental, control, and blank groups were established. Three parallel wells were used per concentration. After 10 h, media from the experimental and control groups were replaced with a complete medium containing the indicated concentration of the compound. Cells were incubated for 72 h before 10 μL of CCK8 reagent (CA1210, Solarbio, China) was added to each well and incubated for 1 h. The absorbance at 450 nm was measured with a microplate reader (Tecan, Switzerland). The IC50 was determined using GraphPad Prism 8 and nonlinear regression curve fitting.
# [2] = target: T1, DCLK1 (Homo sapiens, UniProt O15075); experiment: In vitro DCLK1 kinase activity assay (Eurofins); assay type: biochemical; conditions: for Selectivity (IC50 of DCLK1/IC50 of LRRK2): ratio of IC50 values; for Selectivity (DCLK1 activity/LRRK2 activity): ratio of remaining activities at 1 uM; for IC50: read-out: IC50 of DCLK1; for activity at 1 µM: remaining kinase activity at 1 uM compound, 100% = no inhibition, 0% = complete inhibition, read-out: DCLK1 activity (%)
# T1 construct: purchased Eurofins (Belgium), contract assay service
# T1 sequence (O15075 1-740): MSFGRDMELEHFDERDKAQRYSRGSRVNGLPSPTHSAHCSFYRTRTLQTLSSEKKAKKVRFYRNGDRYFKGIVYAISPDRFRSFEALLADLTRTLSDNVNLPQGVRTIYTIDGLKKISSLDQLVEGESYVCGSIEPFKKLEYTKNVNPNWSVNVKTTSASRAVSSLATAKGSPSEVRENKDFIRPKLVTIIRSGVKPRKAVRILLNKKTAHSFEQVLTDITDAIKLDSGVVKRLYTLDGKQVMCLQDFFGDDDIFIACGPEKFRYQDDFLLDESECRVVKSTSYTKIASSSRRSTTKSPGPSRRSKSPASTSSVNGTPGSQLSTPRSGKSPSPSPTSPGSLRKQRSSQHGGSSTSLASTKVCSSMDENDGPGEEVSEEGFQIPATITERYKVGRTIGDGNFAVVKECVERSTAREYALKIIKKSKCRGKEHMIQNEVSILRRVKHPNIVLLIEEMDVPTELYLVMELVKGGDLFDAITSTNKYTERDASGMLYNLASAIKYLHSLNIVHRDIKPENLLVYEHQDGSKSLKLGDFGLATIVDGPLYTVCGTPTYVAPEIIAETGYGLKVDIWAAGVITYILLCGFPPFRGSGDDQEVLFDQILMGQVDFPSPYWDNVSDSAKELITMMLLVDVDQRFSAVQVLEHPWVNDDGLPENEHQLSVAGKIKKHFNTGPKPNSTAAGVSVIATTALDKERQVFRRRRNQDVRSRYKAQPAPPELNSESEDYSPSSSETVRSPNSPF
# Description: (§1) Eurofins (Belgium) conducted in vitro DCLK1 and LRRK2 kinase activity assays. Compounds were sent as dry powders to Eurofins.
# [3] = target: T2, LRRK2 (Homo sapiens, UniProt Q5S007); experiment: In vitro LRRK2 kinase activity assay (Eurofins); assay type: biochemical; conditions: for activity at 1 µM: remaining kinase activity at 1 uM compound, 100% = no inhibition, 0% = complete inhibition
# T2 construct: purchased Eurofins (Belgium), contract assay service
# T2 sequence (Q5S007 whole entry): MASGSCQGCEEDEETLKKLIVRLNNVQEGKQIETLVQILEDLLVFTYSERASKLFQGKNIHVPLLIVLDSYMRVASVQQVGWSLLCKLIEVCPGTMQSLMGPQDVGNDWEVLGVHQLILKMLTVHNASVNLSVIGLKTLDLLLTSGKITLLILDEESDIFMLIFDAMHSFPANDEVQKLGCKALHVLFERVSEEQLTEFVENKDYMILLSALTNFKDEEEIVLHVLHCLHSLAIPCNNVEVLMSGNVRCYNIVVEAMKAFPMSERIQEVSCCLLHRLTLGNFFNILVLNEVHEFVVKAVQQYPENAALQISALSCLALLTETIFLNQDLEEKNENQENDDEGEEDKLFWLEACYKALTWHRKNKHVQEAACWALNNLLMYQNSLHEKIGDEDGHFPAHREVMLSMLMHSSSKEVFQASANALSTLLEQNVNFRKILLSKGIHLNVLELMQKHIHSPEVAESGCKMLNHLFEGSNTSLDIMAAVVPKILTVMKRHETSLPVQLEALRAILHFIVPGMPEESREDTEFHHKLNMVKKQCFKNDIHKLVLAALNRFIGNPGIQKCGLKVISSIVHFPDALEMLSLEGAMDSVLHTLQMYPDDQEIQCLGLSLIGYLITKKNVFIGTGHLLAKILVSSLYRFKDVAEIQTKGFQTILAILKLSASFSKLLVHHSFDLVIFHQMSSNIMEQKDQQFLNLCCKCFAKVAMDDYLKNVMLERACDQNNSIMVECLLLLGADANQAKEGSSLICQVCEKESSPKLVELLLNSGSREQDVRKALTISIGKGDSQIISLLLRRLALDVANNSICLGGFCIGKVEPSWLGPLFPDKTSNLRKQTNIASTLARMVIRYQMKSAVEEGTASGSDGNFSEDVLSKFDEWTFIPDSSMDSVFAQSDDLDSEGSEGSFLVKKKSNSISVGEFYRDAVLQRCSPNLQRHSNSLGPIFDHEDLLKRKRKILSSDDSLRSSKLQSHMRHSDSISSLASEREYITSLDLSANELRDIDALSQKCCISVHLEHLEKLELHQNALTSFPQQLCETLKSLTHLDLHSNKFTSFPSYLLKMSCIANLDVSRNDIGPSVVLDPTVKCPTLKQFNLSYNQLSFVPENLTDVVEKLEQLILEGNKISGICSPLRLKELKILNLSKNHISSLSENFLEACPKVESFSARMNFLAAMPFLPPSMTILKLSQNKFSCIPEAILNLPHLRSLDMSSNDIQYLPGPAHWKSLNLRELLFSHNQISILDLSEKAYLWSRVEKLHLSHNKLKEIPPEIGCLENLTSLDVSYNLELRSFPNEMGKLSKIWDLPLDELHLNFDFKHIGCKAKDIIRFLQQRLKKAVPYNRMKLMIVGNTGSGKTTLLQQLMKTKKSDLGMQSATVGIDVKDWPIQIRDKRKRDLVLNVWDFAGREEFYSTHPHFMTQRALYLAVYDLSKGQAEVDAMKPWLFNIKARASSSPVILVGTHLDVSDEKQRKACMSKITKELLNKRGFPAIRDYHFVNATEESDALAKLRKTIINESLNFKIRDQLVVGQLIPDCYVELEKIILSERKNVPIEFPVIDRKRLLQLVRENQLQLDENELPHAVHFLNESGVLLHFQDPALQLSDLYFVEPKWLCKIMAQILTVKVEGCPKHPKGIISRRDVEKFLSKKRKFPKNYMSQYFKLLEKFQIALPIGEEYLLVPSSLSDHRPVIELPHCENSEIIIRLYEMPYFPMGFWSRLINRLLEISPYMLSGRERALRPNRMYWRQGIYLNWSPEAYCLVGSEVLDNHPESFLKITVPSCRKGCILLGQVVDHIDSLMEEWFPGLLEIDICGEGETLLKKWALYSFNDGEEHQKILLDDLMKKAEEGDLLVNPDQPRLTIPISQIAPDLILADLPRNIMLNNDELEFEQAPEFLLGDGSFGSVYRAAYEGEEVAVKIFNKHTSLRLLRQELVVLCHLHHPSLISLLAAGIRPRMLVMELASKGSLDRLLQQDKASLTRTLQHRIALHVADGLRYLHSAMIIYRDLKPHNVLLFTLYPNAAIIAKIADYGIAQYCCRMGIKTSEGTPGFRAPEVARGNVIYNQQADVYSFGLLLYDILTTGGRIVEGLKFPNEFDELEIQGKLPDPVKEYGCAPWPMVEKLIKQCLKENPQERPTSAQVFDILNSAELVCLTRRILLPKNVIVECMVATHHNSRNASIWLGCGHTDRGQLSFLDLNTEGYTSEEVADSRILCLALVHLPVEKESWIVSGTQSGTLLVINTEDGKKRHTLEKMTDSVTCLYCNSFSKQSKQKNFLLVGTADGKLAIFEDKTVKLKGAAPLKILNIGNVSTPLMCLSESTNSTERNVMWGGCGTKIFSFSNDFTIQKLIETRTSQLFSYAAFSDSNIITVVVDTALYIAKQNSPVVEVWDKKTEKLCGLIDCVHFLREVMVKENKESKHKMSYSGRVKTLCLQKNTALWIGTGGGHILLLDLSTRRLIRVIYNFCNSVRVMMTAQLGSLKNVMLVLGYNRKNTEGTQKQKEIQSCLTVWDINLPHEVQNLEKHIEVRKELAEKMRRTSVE
# Procedure: All compounds were tested for their kinase inhibitory activity at the concentration of 1 μM. […] Compounds with high activity or good selectivity were selected for further IC50 determination (Table 2).
# as §1
structure (smiles),measurement,setting,value
"CCOc1cc(N2CC[S+]([O-])CC2)ccc1Nc1ncc2c(n1)N(C)c1ccccc1C(=O)N2C [Compound D5, 2-((2-ethoxy-4-(1-Oxidothiomorpholino)phenyl)amino)-5,11-dimethyl-5,11-dihydro-6H-benzo[e]pyrimido[5,4-b][1,4]diazepin-6-one]",melting point,,163 to 164 °C
same,IC50,[1],10.7 µM
same,Selectivity (IC50 of DCLK1/IC50 of LRRK2),[2],0.46
same,Selectivity (DCLK1 activity/LRRK2 activity),[2],0.57
same,IC50,[2],0.146 µM
same,activity at 1 µM,[2],12%
same,IC50,[3],0.32 µM
same,activity at 1 µM,[3],21%
"CCOc1cc(N2CCS(=O)(=O)CC2)ccc1Nc1ncc2c(n1)N(C)c1ccccc1C(=O)N2C [Compound D6, 2-((4-(1,1-Dioxidothiomorpholino)-2-ethoxyphenyl)amino)-5,11-dimethyl-5,11-dihydro-6H-benzo[e]pyrimido[5,4-b][1,4]diazepin-6-one]",melting point,,157 to 158 °C
same,IC50,[1],12 µM
same,Selectivity (IC50 of DCLK1/IC50 of LRRK2),[2],0.38
same,Selectivity (DCLK1 activity/LRRK2 activity),[2],0.47
same,IC50,[2],0.074 µM
same,activity at 1 µM,[2],9%
same,IC50,[3],0.195 µM
same,activity at 1 µM,[3],19%
"CCOc1cc(N2CCN(C[C@@]3(O)OC[C@@H](O)[C@@H](O)[C@@H]3O)CC2)ccc1Nc1ncc2c(n1)N(C)c1ccccc1C(=O)N2C [Compound D7, 2-((2-Ethoxy-4-(4-(((2R,3S,4R,5R)-2,3,4,5-tetrahydroxytetrahydro-2H-pyran-2-yl)methyl)piperazin-1-yl)phenyl)amino)-5,11-dimethyl-5,11-dihydro-6H-benzo[e]pyrimido[5,4-b][1,4]diazepin-6-one]",melting point,,126 to 127 °C
same,IC50,[1],10.5 µM
same,Selectivity (IC50 of DCLK1/IC50 of LRRK2),[2],0.30
same,Selectivity (DCLK1 activity/LRRK2 activity),[2],0.29
same,IC50,[2],0.046 µM
same,activity at 1 µM,[2],6%
same,IC50,[3],0.154 µM
same,activity at 1 µM,[3],21%
"COc1cc(NC(=O)CCCCCSC(C)=O)ccc1Nc1ncc2c(n1)N(C)c1ccccc1C(=O)N2C [Compound D8, S-(6-((4-((5,11-dimethyl-6-oxo-6,11-dihydro-5H-benzo[e]pyrimido[5,4-b][1,4]diazepin-2-yl)amino)-3-methoxyphenyl)amino)-6-oxohexyl) ethanethioate]",melting point,,159 to 160 °C
same,IC50,[1],11.5 µM
same,Selectivity (IC50 of DCLK1/IC50 of LRRK2),[2],0.18
same,Selectivity (DCLK1 activity/LRRK2 activity),[2],0.36
same,IC50,[2],0.04 µM
same,activity at 1 µM,[2],8%
same,IC50,[3],0.228 µM
same,activity at 1 µM,[3],22%
"COc1cc(N2CCCCC2)ccc1Nc1ncc2c(n1)N(C)c1ccccc1C(=O)N2C [Compound D11, 2-((2-Methoxy-4-(piperidin-1-yl)phenyl)amino)-5,11-dimethyl-5,11-dihydro-6H-benzo[e]pyrimido[5,4-b][1,4]diazepin-6-one]",melting point,,166 to 167 °C
same,IC50,[1],11.5 µM
same,Selectivity (IC50 of DCLK1/IC50 of LRRK2),[2],0.38
same,Selectivity (DCLK1 activity/LRRK2 activity),[2],0.61
same,IC50,[2],0.1 µM
same,activity at 1 µM,[2],11%
same,IC50,[3],0.266 µM
same,activity at 1 µM,[3],18%
"COc1cc(N2CCC(OC)CC2)ccc1Nc1ncc2c(n1)N(C)c1ccccc1C(=O)N2C [Compound D12, 2-((2-Methoxy-4-(4-methoxypiperidin-1-yl)phenyl)amino)-5,11-dimethyl-5,11-dihydro-6H-benzo[e]pyrimido[5,4-b][1,4]diazepin-6-one]",melting point,,179 to 180 °C
same,IC50,[1],10.1 µM
same,Selectivity (IC50 of DCLK1/IC50 of LRRK2),[2],0.47
same,Selectivity (DCLK1 activity/LRRK2 activity),[2],0.50
same,IC50,[2],0.047 µM
same,activity at 1 µM,[2],5%
same,IC50,[3],0.099 µM
same,activity at 1 µM,[3],10%
"COc1cc(N2CCC(F)(F)CC2)ccc1Nc1ncc2c(n1)N(C)c1ccccc1C(=O)N2C [Compound D14, 2-((4-(4,4-Difluoropiperidin-1-yl)-2-methoxyphenyl)amino)-5,11-dimethyl-5,11-dihydro-6H-benzo[e]pyrimido[5,4-b][1,4]diazepin-6-one]",melting point,,171 to 172 °C
same,IC50,[1],15.5 µM
same,Selectivity (IC50 of DCLK1/IC50 of LRRK2),[2],0.40
same,Selectivity (DCLK1 activity/LRRK2 activity),[2],0.44
same,IC50,[2],0.053 µM
same,activity at 1 µM,[2],7%
same,IC50,[3],0.132 µM
same,activity at 1 µM,[3],16%
"COc1cc(N2CCC(C)(O)CC2)ccc1Nc1ncc2c(n1)N(C)c1ccccc1C(=O)N2C [Compound D15, 2-((4-(4-Hydroxy-4-methylpiperidin-1-yl)-2-methoxyphenyl)amino)-5,11-dimethyl-5,11-dihydro-6H-benzo[e]pyrimido[5,4-b][1,4]diazepin-6-one]",melting point,,162 to 163 °C
same,IC50,[1],9.88 µM
same,Selectivity (IC50 of DCLK1/IC50 of LRRK2),[2],0.58
same,Selectivity (DCLK1 activity/LRRK2 activity),[2],0.44
same,IC50,[2],0.052 µM
same,activity at 1 µM,[2],4%
same,IC50,[3],0.089 µM
same,activity at 1 µM,[3],9%
